The values that follow are results of earlier work, collected in US8512522B2, “Method of producing paper with methane reduction ingredients” (priority 2011, dated 2013).

One series concerns Anaerobic digester. The conditions noted are these: methane inhibition.
Series [1] has as its system Anaerobic digested sludge + activated sludge.
Another series has as its system Anaerobic medium. The note with it: methane inhibition.
The next series relates to Marine sediments. The note with it: methane inhibition.
In the next series the test system is Sewage sludge. The note with it: methane inhibition.

Where two headings read alike, the source gives them in different places. Where only a bound is given, the exact number is not on record here.

Consider Sodium, for which, in the series with Anaerobic digester, the “Suppressive Concentration” value is given as >3,500 mg/L.

In the case of `O=S(=O)(O)CCBr` [2-Bromoethane sulfonic acid], the “Suppressive Concentration” value in series [1] (completely inhibited, Parameswaran et al., 2009) is 50 mM; in series [1] (potently inhibited, Chae et al., 2010) it was 0.1 to 0.27 mM. Take `[Ca+2]` [Calcium]: the “Suppressive Concentration” value in the series on Anaerobic digester is recorded as >2,500 mg/L.

Take `[Mg+2]` [Magnesium]: the “Suppressive Concentration” value in the series with Anaerobic digester was >1,000 mg/L. Consider `[K+]` [Potassium], for which the “Suppressive Concentration” value in the series on Anaerobic digester was >2,500 mg/L.

As for `[Cu+2]` [Copper (Cu2+)], the “Suppressive Concentration” value in the series with Anaerobic digester is 10 to 250 mg/L. With `[Ni+2]` [Nickel (Ni2+)], the “Suppressive Concentration” value with Anaerobic medium is 2.5 mM.

As to `C=C` [Ethylene], the “Suppressive Concentration” value in the series on Marine sediments is listed as more than 5% v/v. In the case of `[Fe+3]` [Ferric iron (Fe3+)], the “Suppressive Concentration” value with Sewage sludge was 21 mg/L. Consider `[Zn+2]` [Zinc (Zn2+)], for which, in the series with Anaerobic digester, the “Suppressive Concentration” value was 10 to 250 mg/L.
